The target in the test is T1, KRas-G12D (Homo sapiens, UniProt P01116, G12D).
T1 construct: insert the HiBiT tag onto the N-terminus of one or more of the endogenous KRas alleles; host or cells: AsPC-1 HiBiT-KRasG12D knock-in clone (one tagged allele, two untagged KRasG12D alleles)
The test is described as follows: HiBiT Degradation Assay (G12D), AsPC-1 HiBiT-KRasG12D cells, 24 hr. The format is cell-based. Particulars: for Dmax: ASPC1, AsPC-1 cells, maximum degradation observed; for DC50: AsPC-1 cells. The method in brief: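 AsPC-1 cells with CRISPR N-terminal HiBiT knock-in on one endogenous KRasG12D allele, treated 24 hr at 37° C with compound titrations in 0.5% DMSO. Lytic HiBiT luminescence normalized to DMSO, fitted to a 4-parameter model for DC50 and Dmax. Parallel alamar blue (4 hr) checked viability.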

T1 sequence (P01116 1-188 isoform P01116-2 G12D): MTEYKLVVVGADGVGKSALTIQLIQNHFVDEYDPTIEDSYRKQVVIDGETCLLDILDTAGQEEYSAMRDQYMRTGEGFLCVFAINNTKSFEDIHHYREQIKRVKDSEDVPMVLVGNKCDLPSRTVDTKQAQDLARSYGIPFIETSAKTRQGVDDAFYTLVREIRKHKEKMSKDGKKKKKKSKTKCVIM

As for `C#Cc1c(F)ccc2cc(O)cc(-c3ncc4c(N5CC6CCC(C5)N6)nc(OC[C@@H](C)N5CCC(CC6CCN(CC7CCN(c8ccc9c(c8F)CN(C8CCC(=O)NC8=O)C9=O)CC7)CC6)CC5)nc4c3F)c12` (stereo partly drawn) [Compound 185, 3-[5-(4-{[4-({1-[(2R)-1-[(4-{3,8-diazabicyclo[3.2.1]octan-3-yl}-7-(8-ethynyl-7-fluoro-3-hydroxynaphthalen-1-yl)-8-fluoropyrido[4,3-d]pyrimidin-2-yl)oxy]propan-2-yl]piperidin-4-yl}methyl)piperidin-1-yl]methyl}piperidin-1-yl)-4-fluoro-1-oxo-2,3-dihydro-1H-isoindol-2-yl]piperidine-2,6-dione], the Dmax (usually the greatest extent of degradation seen) is more than 70% and the DC50 (in general, the concentration giving 50% degradation) was less than 5.1 µM.

Take `C#Cc1c(F)ccc2cc(O)cc(-c3ncc4c(N5CC6CCC(C5)N6)nc(OCC5(CN6CCC(CC7CCN(c8ccc9c(c8Cl)CN(C8CCC(=O)NC8=O)C9=O)CC7)CC6)CC5)nc4c3F)c12` (stereo not drawn) [Compound 190, 3-{4-chloro-5-[4-({1-[(1-{[(4-{3,8-diazabicyclo[3.2.1]octan-3-yl}-7-(8-ethynyl-7-fluoro-3-hydroxynaphthalen-1-yl)-8-fluoropyrido[4,3-d]pyrimidin-2-yl)oxy]methyl}cyclopropyl)methyl]piperidin-4-yl}methyl)piperidin-1-yl]-1-oxo-2,3-dihydro-1H-isoindol-2-yl}piperidine-2,6-dione]: the Dmax is more than 70% and the DC50 is less than 5.1 µM.

As for `C#Cc1c(F)ccc2cccc(-c3ncc4c(N5CC6CCC(C5)N6)nc(OC[C@@]56CCCN5[C@H](CN5CCN(CC7CCN(c8ccc9c(c8)n(C)c(=O)n9C8CCC(=O)NC8=O)CC7)CC5)CC6)nc4c3F)c12` (stereo partly drawn) [Compound 234], the Dmax is more than 70% and the half-maximal degradation concentration (DC50) was less than 5.1 µM.

For the molecule `C#Cc1c(F)ccc2cc(O)cc(-c3ncc4c(N5CC6CCC(C5)N6)nc(OC[C@]56CCCN5[C@H](CN5CCN(CC7CCN(c8ccc9c(c8)CN(C8CCC(=O)NC8=O)C9=O)CC7)CC5)CC6)nc4c3F)c12` (stereo partly drawn) [Compound 84, 3-[5-[4-[[4-[[(3S,8R)-8-[[4-(3,8-diazabicyclo[3.2.1]octan-3-yl)-7-(8-ethynyl-7-fluoro-3-hydroxy-1-naphthyl)-8-fluoro-pyrido[4,3-d]pyrimidin-2-yl]oxymethyl]-1,2,3,5,6,7-hexahydropyrrolizin-3-yl]methyl]piperazin-1-yl]methyl]-1-piperidyl]-1-oxo-isoindolin-2-yl]piperidine-2,6-dione], the greatest degradation seen (Dmax) is more than 70% and the half-maximal degradation concentration (DC50) was less than 5.1 µM.

`C#Cc1c(F)ccc2cc(O)cc(-c3ncc4c(N5CC6CCC(C5)N6)nc(OCCN5CCC(CN6CC7(CCN(c8cccc9c8CN(C8CCC(=O)NC8=O)C9=O)CC7)C6)CC5)nc4c3F)c12` (stereo not drawn) [Compound 140, 3-(4-{2-[(1-{2-[(4-{3,8-diazabicyclo[3.2.1]octan-3-yl}-7-(8-ethynyl-7-fluoro-3-hydroxynaphthalen-1-yl)-8-fluoropyrido[4,3-d]pyrimidin-2-yl)oxy]ethyl}piperidin-4-yl)methyl]-2,7-diazaspiro[3.5]nonan-7-yl}-1-oxo-2,3-dihydro-1H-isoindol-2-yl)piperidine-2,6-dione] registered a DC50 of 0.25 to 1 µM.

Molecule `CCc1cccc2cc(O)cc(-c3ncc4c(N5CC6CCC(C5)N6)nc(OC[C@@]56CCCN5[C@H](COC(=O)N5CCN(c7cccc8c7C(=O)N(C7CCC(=O)NC7=O)C8=O)CC5)CC6)nc4c3F)c12` (stereo partly drawn) [Compound 64, [(3S,8S)-8-[[4-(3,8-diazabicyclo[3.2.1]octan-3-yl)-7-(8-ethyl-3-hydroxy-1-naphthyl)-8-fluoro-pyrido[4,3-d]pyrimidin-2-yl]oxymethyl]-1,2,3,5,6,7-hexahydropyrrolizin-3-yl]methyl 4-[2-(2,6-dioxo-3-piperidyl)-1,3-dioxo-isoindolin-4-yl]piperazine-1-carboxylate] had a DC50 of 0.1 to 5.25 µM.

For the molecule `C#Cc1c(F)ccc2cc(O)cc(-c3ncc4c(N5CC6CCC(C5)N6)nc(OC[C@@H]5CC[C@@H](COC(=O)N6CCN(c7ccc8c(c7)CN(C7CCC(=O)NC7=O)C8=O)CC6)N5C)nc4c3F)c12` (stereo partly drawn) [Compound 114, [(2S,5S)-5-{[(4-{3,8-diazabicyclo[3.2.1]octan-3-yl}-7-(8-ethynyl-7-fluoro-3-hydroxynaphthalen-1-yl)-8-fluoropyrido[4,3-d]pyrimidin-2-yl)oxy]methyl}-1-methylpyrrolidin-2-yl]methyl 4-[2-(2,6-dioxopiperidin-3-yl)-1-oxo-2,3-dihydro-1H-isoindol-5-yl]piperazine-1-carboxylate], the 50% degradation concentration (DC50) is less than 5.1 µM.

Take `CCc1cccc2cc(O)cc(-c3ncc4c(N5CC6CCC(C5)N6)nc(OCCN5CCC(Cn6cccc(CN7CCC(=O)NC7=O)c6=O)CC5)nc4c3F)c12` [Compound 16]: the half-maximal degradation concentration (DC50) was more than 1 µM.

`C#Cc1c(F)ccc2cc(O)cc(-c3ccc4c(N5CC6CCC(C5)N6)nc(OCCN5CCN(CC6CCN(CC7CCN(c8ccc9c(c8)n(C)c(=O)n9C8CCC(=O)NC8=O)CC7)CC6)CC5(C)C)nc4c3F)c12` (stereo not drawn) [Compound 227] yielded a DC50 of less than 5.1 µM.

`C#Cc1c(F)ccc2cc(O)cc(-c3ncc4c(N5CC6CCC(C5)N6)nc(OC[C@@H]5C[C@@H](OC6CCN(CC7CCN(c8ccc9c(c8)n(C)c(=O)n9C8CCC(=O)NC8=O)CC7)CC6)CN5C)nc4c3F)c12` (stereo partly drawn) [Compound 96, 3-(5-{4-[(4-{[(3R,5S)-5-{[(4-{3,8-diazabicyclo[3.2.1]octan-3-yl}-7-(8-ethynyl-7-fluoro-3-hydroxynaphthalen-1-yl)-8-fluoropyrido[4,3-d]pyrimidin-2-yl)oxy]methyl}-1-methylpyrrolidin-3-yl]oxy}piperidin-1-yl)methyl]piperidin-1-yl}-3-methyl-2-oxo-2,3-dihydro-1H-1,3-benzodiazol-1-yl)piperidine-2,6-dione] displayed a Dmax of more than 70% and a 50% degradation concentration (DC50) of less than 5.1 µM.

For `C#Cc1c(F)ccc2cc(O)cc(-c3ncc4c(N5CC6CCC(C5)N6)nc(OCCN5CCC(CN6CCC7(CC6)CCN(c6ccc8c(c6)CN(C6CCC(=O)NC6=O)C8=O)CC7)CC5)nc4c3F)c12` (stereo not drawn) [Compound 93, 3-(5-{9-[(1-{2-[(4-{3,8-diazabicyclo[3.2.1]octan-3-yl}-7-(8-ethynyl-7-fluoro-3-hydroxynaphthalen-1-yl)-8-fluoropyrido[4,3-d]pyrimidin-2-yl)oxy]ethyl}piperidin-4-yl)methyl]-3,9-diazaspiro[5.5]undecan-3-yl}-1-oxo-2,3-dihydro-1H-isoindol-2-yl)piperidine-2,6-dione], the Dmax was more than 70% and the DC50 is less than 5.1 µM.

For `CCc1cccc2cc(O)cc(-c3ncc4c(N5CC6CCC(C5)N6)nc(OCCN5CCN(c6ccc7c(c6)C(=O)N(C6CCC(=O)NC6=O)C7=O)CC5)nc4c3F)c12` (stereo not drawn) [Compound 40], the Dmax is not above 25% and the DC50 is more than 1 µM.

Regarding `C#Cc1c(F)ccc2cccc(-c3ncc4c(N5CC6CCC(C5)N6)nc(OC[C@@]56CCCN5[C@H](CN5CCN(CC7CCN(c8ccc9c(c8F)CN(C8CCC(=O)NC8=O)C9=O)CC7)CC5)CC6)nc4c3F)c12` (stereo partly drawn) [Compound 238], the Dmax is more than 70% and the DC50 is less than 5.1 µM.

In the case of `C#Cc1c(F)ccc2cc(O)cc(-c3ncc4c(N5CC6CCC(C5)N6)nc(OCCN5CCC(CC6CCN(CC7CCN(c8cccc9c8n(C)c(=O)n9C8CCC(=O)NC8=O)CC7)CC6)CC5)nc4c3F)c12` (stereo not drawn) [Compound 133, 3-{4-[4-({4-[(1-{2-[(4-{3,8-diazabicyclo[3.2.1]octan-3-yl}-7-(8-ethynyl-7-fluoro-3-hydroxynaphthalen-1-yl)-8-fluoropyrido[4,3-d]pyrimidin-2-yl)oxy]ethyl}piperidin-4-yl)methyl]piperidin-1-yl}methyl)piperidin-1-yl]-3-methyl-2-oxo-2,3-dihydro-1H-1,3-benzodiazol-1-yl}piperidine-2,6-dione], the Dmax was more than 70% and the half-maximal degradation concentration (DC50) was less than 5.1 µM.

`C#Cc1c(F)ccc2cc(O)cc(-c3ncc4c(N5CC6CCC(C5)N6)nc(OCCN5CCC(CC6CCN(CC7CCN(c8ccc(F)c9c8CN(C8CCC(=O)NC8=O)C9=O)CC7)CC6)CC5)nc4c3F)c12` (stereo not drawn) [Compound 123] had a Dmax of more than 70% and a DC50 of less than 5.1 µM.

In turn, `C#Cc1c(F)ccc2cccc(-c3ncc4c(N5CC6CCC(C5)N6)nc(OC[C@@]56CCCN5[C@H](CN5CCN(c7ccc8c(c7)CN(C7CCC(=O)NC7=O)C8=O)CC5)CC6)nc4c3F)c12` (stereo partly drawn) [Compound 146] yielded a DC50 of 0.25 to 1 µM.

In turn, `C#Cc1c(F)ccc2cc(O)cc(-c3ncc4c(N5CC6CCC(C5)N6)nc(OC[C@]56CCCN5[C@H](CN5CCN(CC7CCN(c8ccc9c(c8)n(C(C)C)c(=O)n9C8CCC(=O)NC8=O)CC7)CC5)CC6)nc4c3F)c12` (stereo partly drawn) [Compound 208, 3-[5-[4-[[4-[[(3S,8R)-8-[[4-(3,8-diazabicyclo[3.2.1]octan-3-yl)-7-(8-ethynyl-7-fluoro-3-hydroxy-1-naphthyl)-8-fluoro-pyrido[4,3-d]pyrimidin-2-yl]oxymethyl]-1,2,3,5,6,7-hexahydropyrrolizin-3-yl]methyl]piperazin-1-yl]methyl]-1-piperidyl]-3-isopropyl-2-oxo-benzimidazol-1-yl]piperidine-2,6-dione] registered a Dmax of more than 70% and a DC50 of less than 5.1 µM.

Regarding `C#Cc1c(F)ccc2cc(O)cc(-c3ncc4c(N5CC6CCC(C5)N6)nc(OCCN5CCC(CC6CCN(CC7CCN(c8ccc9c(c8)CN([C@H]8CCC(=O)NC8=O)C9=O)CC7)CC6)CC5)nc4c3F)c12` [Compound 215, (3S)-3-{5-[4-({4-[(1-{2-[(4-{3,8-diazabicyclo[3.2.1]octan-3-yl}-7-(8-ethynyl-7-fluoro-3-hydroxynaphthalen-1-yl)-8-fluoropyrido[4,3-d]pyrimidin-2-yl)oxy]ethyl}piperidin-4-yl)methyl]piperidin-1-yl}methyl)piperidin-1-yl]-1-oxo-2,3-dihydro-1H-isoindol-2-yl}piperidine-2,6-dione], the Dmax was more than 70% and the half-maximal degradation concentration (DC50) is less than 5.1 µM.

For the origin of these results see patent US12448399B2, “Cereblon-based KRAS degrading PROTACs and uses related thereto” (Arvinas Operations, Inc., priority 2023, dated 2025).
